ChEMBL document CHEMBL1201862, “PubChem BioAssay data set” (2004)
Values belong to the molecule of their own block, whether it stands above or below them. The source made the active and inactive calls.

What was measured:
Protein skinhead-1 = target: T1, Protein skinhead-1 (Caenorhabditis elegans, UniProt P34707); type: functional
T1 sequence (P34707 whole entry): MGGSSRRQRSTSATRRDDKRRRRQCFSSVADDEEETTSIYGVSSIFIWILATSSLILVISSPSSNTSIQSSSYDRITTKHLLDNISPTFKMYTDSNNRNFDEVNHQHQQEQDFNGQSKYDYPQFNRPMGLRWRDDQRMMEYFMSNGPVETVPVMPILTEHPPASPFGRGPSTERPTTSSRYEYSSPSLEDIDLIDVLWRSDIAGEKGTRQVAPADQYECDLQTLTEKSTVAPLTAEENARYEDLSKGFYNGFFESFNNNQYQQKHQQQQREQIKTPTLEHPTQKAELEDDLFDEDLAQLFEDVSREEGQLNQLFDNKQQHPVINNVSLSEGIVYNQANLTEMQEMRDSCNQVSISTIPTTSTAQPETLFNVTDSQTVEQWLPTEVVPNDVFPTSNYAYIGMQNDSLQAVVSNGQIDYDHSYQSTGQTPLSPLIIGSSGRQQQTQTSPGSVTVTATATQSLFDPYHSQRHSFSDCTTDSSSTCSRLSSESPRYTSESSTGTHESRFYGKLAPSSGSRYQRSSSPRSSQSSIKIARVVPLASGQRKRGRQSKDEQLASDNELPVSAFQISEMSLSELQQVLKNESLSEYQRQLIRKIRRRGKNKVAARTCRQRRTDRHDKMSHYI

[1] = target: T2, Polyadenylate-binding protein 1 (Homo sapiens, UniProt P11940); assay: MLLE binding blockers, Cy5 peptide tracer – biochemical, fluorescence polarization, Cy5-PAM2 peptide, secondary, miRNA deadenylation inhibitor project, dose response (AID 602260); type: functional; settings: read-out: IC50_Mean
T2 sequence (P11940 whole entry, the tested form may be a part): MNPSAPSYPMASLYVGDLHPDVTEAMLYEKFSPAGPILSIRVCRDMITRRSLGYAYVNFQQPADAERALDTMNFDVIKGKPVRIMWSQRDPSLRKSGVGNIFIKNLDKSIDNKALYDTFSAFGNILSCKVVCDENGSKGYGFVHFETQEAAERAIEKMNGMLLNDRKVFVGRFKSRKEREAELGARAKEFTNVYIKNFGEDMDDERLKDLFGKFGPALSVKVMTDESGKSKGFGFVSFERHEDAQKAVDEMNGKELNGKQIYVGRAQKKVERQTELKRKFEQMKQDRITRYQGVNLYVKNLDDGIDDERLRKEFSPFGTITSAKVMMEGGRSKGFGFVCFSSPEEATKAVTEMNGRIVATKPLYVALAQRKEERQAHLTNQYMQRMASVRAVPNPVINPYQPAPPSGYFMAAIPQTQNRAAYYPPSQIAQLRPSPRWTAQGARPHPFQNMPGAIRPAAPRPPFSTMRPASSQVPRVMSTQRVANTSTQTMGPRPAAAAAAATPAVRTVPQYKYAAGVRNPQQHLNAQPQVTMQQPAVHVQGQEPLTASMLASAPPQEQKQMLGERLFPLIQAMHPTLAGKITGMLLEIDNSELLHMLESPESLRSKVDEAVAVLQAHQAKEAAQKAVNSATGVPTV

[2] = target: T2, Polyadenylate-binding protein 1; assay: MLLE domain peptide-binding blockers, IC50 – biochemical, fluorescence polarization, FITC-PAM2 peptide, dose response (AID 602259); type: functional; settings: read-out: IC50_Mean
[3] = target: T3, Corticotropin-releasing factor receptor 2/Corticotropin-releasing factor-binding protein (Homo sapiens, UniProt P24387+Q13324); assay: Dose Response confirmation of uHTS hits for small molecule antagonists of the CRF-binding protein and CRF-R2 receptor complex.; type: functional; settings: read-out: IC50_Mean
T3 sequence (Q13324 whole entry): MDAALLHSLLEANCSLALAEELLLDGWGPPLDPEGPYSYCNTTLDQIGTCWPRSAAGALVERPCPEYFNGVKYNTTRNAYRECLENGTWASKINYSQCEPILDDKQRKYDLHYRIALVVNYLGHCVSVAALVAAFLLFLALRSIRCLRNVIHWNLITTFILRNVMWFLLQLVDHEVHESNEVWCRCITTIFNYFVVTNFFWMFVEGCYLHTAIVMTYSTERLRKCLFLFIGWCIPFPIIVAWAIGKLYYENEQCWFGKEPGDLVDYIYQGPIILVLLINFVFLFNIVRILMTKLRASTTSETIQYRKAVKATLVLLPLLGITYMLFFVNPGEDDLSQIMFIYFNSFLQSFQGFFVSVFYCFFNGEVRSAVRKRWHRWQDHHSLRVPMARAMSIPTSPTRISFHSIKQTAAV
T3 sequence (P24387 whole entry): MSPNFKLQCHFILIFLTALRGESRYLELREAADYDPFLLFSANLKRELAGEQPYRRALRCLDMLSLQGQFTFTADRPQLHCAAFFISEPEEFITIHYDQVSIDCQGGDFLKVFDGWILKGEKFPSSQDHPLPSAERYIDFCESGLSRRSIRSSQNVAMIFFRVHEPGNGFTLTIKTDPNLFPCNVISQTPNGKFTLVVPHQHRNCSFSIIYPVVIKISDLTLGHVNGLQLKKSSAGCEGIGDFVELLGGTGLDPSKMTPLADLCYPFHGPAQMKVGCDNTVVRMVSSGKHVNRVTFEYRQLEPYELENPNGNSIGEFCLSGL

[4] = target: T3, Corticotropin-releasing factor receptor 2/Corticotropin-releasing factor-binding protein; assay: activators of CRF receptor 2 with binding protein – uHTS hits, confirmation (AID 602473); type: functional; settings: read-out: EC50_Mean
[5] = loss of viability in HepG2 cells – cell-based, CellTiter-Glo, cherry-picked, cytotoxicity control for Shn3 inhibitor project, dose response (AID 624134); type: functional
[6] = reduction of Shn3 3'UTR-driven luciferase in osteoblasts – cell-based, Clone20 osteoblasts, firefly luciferase, cherry-picked, dose response (AID 624132); type: functional;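 note: firefly luciferase luminescence from reporter carrying the Shn3 3'UTR in osteoblasts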
[7] = non-specific 3'UTR reporter inhibition in Clone20-Shn3RL – cell-based, Renilla luciferase, cherry-picked, counter-screen for Shn3 inhibitor project, dose response (AID 624133); type: functional
Fatty acid synthase [8] = target: T4, Fatty acid synthase (Homo sapiens, UniProt P49327); assay: inhibition of human FAS-TE enzyme activity – biochemical, endpoint fluorescence intensity, uHTS hits, dose response (AID 624327); type: functional;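 note: fluorescence from hydrolysis of an O-methyl fluorescein acyl ester substrate by the enzyme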
T4 sequence (P49327 whole entry): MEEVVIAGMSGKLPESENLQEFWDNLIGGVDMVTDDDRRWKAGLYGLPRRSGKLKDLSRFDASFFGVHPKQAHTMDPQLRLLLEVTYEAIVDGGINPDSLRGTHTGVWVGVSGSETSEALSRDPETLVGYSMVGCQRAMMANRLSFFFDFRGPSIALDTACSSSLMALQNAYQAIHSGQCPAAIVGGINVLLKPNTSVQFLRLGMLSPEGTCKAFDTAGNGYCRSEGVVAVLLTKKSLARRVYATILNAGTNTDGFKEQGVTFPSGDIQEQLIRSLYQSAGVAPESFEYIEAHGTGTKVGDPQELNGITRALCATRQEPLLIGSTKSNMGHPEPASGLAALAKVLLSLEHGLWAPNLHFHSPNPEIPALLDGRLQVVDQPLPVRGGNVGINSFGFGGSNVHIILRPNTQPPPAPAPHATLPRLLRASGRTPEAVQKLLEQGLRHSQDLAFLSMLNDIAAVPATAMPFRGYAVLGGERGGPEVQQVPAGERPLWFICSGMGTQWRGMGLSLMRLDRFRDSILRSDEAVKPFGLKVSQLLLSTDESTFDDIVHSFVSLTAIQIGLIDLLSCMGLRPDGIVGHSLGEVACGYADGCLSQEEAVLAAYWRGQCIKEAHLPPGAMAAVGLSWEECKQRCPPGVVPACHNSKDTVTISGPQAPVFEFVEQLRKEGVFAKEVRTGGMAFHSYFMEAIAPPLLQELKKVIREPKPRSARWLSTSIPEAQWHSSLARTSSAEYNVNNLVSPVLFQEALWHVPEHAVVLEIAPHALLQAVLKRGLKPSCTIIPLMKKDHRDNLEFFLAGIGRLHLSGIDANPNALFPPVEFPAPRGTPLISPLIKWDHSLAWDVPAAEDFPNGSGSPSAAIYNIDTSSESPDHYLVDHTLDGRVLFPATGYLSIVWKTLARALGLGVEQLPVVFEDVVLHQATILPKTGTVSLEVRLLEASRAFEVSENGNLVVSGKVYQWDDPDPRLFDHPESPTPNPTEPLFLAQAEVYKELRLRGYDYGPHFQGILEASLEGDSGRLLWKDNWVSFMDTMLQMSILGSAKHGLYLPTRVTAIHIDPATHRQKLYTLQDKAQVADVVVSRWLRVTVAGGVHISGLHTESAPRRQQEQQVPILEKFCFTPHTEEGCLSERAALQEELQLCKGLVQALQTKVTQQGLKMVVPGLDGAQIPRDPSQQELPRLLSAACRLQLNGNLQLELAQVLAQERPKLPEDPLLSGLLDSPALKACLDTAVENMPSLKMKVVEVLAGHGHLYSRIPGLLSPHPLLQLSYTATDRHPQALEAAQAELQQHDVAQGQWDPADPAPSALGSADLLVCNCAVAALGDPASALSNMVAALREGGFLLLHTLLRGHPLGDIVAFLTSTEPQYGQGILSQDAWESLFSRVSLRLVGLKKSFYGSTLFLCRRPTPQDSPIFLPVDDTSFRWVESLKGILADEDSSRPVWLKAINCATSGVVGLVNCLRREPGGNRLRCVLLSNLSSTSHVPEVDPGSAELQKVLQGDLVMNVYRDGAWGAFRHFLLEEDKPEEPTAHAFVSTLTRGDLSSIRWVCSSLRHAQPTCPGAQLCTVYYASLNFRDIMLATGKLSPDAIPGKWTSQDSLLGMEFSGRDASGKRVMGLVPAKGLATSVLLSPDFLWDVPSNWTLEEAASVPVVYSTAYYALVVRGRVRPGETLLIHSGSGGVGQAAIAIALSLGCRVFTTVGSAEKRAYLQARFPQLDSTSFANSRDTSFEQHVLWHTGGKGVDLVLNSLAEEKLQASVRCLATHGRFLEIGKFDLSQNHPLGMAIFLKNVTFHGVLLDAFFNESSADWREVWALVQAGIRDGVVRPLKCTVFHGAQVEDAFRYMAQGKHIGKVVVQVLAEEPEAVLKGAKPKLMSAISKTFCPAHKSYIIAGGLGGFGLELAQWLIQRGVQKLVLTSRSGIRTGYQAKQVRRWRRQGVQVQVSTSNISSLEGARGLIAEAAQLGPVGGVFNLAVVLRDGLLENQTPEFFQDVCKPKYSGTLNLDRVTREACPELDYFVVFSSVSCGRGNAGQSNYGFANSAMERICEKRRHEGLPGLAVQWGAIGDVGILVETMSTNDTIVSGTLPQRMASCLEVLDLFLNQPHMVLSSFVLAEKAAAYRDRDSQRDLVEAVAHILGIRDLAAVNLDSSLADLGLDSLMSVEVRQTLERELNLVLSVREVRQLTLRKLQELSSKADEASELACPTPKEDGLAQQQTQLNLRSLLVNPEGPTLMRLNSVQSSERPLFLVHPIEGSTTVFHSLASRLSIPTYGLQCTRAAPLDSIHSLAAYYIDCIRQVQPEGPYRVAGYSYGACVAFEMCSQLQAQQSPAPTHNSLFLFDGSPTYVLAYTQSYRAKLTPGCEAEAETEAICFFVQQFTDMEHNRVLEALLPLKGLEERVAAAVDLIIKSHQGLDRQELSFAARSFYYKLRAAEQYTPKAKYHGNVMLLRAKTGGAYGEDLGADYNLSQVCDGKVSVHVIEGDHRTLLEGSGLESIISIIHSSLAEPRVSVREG

Fatty acid synthase [9] = target: T4, Fatty acid synthase; assay: inhibition of human FAS-TE enzyme activity – biochemical, kinetic fluorescence intensity, dose response (AID 624326); type: functional;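 note: rate of fluorescence rise from hydrolysis of a fluorogenic O-methyl fluorescein ester substrate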
[10] = target: FAD-linked sulfhydryl oxidase ALR (Homo sapiens, UniProt P55789); assay: ALR-catalysed DTT oxidation blockers – biochemical, H2O2 detection, luminescence, cherry-pick, dose response (AID 493248)
FAD-linked sulfhydryl oxidase ALR, sequence (P55789 whole entry): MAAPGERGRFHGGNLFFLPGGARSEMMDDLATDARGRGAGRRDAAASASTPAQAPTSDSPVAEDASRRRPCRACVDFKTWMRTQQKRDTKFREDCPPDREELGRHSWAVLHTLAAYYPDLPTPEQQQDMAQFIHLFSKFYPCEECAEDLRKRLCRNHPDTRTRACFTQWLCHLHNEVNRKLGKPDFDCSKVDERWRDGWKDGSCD

cells [11] = type: functional, cell-based
cells [12] = type: functional, cell-based; remark: listed apart in the source
Estrogen receptor = target: T5, Estrogen receptor (Homo sapiens, UniProt P03372);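 note: potency for inhibiting coactivator peptide recruitment to the receptor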
T5 sequence (P03372 whole entry): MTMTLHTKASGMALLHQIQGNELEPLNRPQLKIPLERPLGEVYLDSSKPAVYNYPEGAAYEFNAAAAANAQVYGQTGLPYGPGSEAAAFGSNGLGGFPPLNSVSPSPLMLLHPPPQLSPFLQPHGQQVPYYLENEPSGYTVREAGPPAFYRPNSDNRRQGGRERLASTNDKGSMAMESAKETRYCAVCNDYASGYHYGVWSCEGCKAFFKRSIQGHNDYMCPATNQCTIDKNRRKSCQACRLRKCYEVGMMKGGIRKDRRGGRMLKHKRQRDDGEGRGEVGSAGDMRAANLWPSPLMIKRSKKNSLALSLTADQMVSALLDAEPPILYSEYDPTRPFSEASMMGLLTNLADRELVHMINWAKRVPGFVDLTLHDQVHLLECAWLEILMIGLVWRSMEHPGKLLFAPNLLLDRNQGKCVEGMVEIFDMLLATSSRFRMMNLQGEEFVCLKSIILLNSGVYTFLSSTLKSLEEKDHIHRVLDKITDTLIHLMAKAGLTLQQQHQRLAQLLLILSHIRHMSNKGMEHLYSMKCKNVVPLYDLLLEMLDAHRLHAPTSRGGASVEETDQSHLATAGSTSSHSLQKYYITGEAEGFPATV

Cytochrome P450 2D6 = Cytochrome P450 2D6 (Homo sapiens, UniProt P10635);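 note: CYP2D6 member of a cytochrome P450 panel assay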
Cytochrome P450 2D6, sequence (P10635 whole entry, the tested form may be a part): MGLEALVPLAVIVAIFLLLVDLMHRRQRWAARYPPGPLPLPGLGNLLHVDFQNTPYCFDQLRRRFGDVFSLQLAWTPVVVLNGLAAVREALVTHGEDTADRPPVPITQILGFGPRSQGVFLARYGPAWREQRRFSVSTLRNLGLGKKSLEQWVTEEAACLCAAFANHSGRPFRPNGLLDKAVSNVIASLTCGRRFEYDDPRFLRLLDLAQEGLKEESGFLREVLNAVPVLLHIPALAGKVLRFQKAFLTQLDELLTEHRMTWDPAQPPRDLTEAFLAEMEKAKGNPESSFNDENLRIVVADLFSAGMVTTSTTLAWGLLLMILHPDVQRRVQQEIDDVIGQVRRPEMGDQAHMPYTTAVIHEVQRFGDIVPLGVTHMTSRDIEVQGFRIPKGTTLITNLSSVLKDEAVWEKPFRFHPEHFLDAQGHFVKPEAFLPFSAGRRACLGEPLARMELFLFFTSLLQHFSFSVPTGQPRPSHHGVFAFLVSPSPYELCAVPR

[13] = target: T6, RNA-binding protein pos-1 (Caenorhabditis elegans, UniProt G5EF15); assay: disruptors of C. elegans POS-1 RNA interaction – biochemical, fluorescence polarization, dose response (AID 1964);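 note: purified POS-1 fused to maltose binding protein made in E. coli; potency of compounds blocking POS-1 binding to fluorescent RNA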
T6 sequence (G5EF15 whole entry): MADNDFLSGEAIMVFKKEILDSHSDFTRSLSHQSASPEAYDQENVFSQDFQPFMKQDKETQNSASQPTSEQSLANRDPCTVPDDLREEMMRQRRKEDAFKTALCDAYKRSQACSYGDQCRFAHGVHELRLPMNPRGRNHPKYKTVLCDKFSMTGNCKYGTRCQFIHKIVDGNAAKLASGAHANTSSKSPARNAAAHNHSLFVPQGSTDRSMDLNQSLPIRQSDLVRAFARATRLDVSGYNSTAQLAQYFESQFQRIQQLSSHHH

[14] = target: T7, Zinc finger protein mex-5 (Caenorhabditis elegans, UniProt Q9XUB2); assay: potency of MEX-5 RNA-binding blockers – biochemical, C. elegans, fluorescence polarization, dose response (AID 1960)
T7 sequence (Q9XUB2 whole entry): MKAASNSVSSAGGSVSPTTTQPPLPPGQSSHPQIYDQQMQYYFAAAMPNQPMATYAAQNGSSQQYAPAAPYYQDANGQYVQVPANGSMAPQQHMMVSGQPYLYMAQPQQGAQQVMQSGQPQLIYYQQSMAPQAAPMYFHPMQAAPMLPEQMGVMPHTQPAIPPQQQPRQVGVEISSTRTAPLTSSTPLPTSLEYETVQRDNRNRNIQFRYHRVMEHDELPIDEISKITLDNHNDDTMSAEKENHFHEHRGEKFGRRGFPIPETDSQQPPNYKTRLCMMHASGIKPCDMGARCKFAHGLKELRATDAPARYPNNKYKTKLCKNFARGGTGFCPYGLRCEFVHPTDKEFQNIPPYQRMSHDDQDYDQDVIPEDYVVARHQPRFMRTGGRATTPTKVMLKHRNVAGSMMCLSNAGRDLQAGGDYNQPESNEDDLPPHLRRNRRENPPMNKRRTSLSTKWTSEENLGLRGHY

INS1 = assay: INS-1E survival protection against cytokine death – cell-based, luminescence, retest, dose response (AID 449756); type: functional; settings: Rattus norvegicus;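 note: cell death triggered by IL-1 beta plus TNF-alpha plus IFN-gamma mixture; protective hits raise ATP signal compared with cytokine alone wells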
[15] = Luminescence Cell-Based Dose Retest to Confirm Inhibitors of Cancer Stem Cells. [Related pubchem assays (depositor defined):AID2717, AID2721]; type: functional; settings: Homo sapiens

IC50 (Protein skinhead-1): 21.3 µM (active)
Structure (SMILES): O=C(Nc1nccs1)c1ccc2ccccc2n1

IC50 [1]: > 66 µM (inactive) | IC50 [2]: > 66 µM (inactive)
Structure (SMILES): CCOC(=O)c1sc(NC(=S)NC(=O)c2ccco2)nc1C

IC50 [3]: > 47.1 µM (inactive) | EC50 [4]: > 53 µM (inactive)
Structure (SMILES): COc1cc2nc(SCc3c(C)noc3C)n(CCC3=CCCCC3)c(=O)c2cc1OC

IC50 [1]: > 66 µM (inactive) | IC50 [2]: > 66 µM (inactive)
Structure (SMILES): Cc1ccc(NC(S)=Nc2ccc(F)cc2)cc1

Structure (SMILES): CCN(CC)S(=O)(=O)c1ccc(-c2ccc(S(=O)(=O)N(CC)CC)cc2)cc1
AC50 [5]: 6.43 µM (active) | AC50 [6]: 3.81 µM (active) | AC50 [7]: 3.13 µM (active)

IC50 [1]: > 66 µM (inactive) | IC50 [2]: > 66 µM (inactive)
Structure (SMILES): Cc1cccnc1NC(=S)NC(=O)c1oc2ccccc2c1C

Structure (SMILES): O=C1[C@H]2[C@@H](c3ccc(F)cc3)N3C(=O)N(c4ccccc4)C(=O)[C@@]3(Cc3ccccc3)[C@H]2C(=O)N1C1CCCCC1
IC50 (Fatty acid synthase [8]): 17.5 µM (active) | IC50 (Fatty acid synthase [9]): 11 µM (active) | AC50 [5]: 64.9 µM (active) | AC50 [6]: > 70 µM (inactive) | AC50 [7]: 31.3 µM (active)

IC50 (Protein skinhead-1): > 100 µM (inactive)
Structure (SMILES): O=C(Nc1ccc2snnc2c1)N1CCSCC1

IC50 [3]: > 47.1 µM (inactive) | EC50 [4]: > 53 µM (inactive) | AC50 [10]: 13.1 µM (active)
Structure (SMILES): COC(=O)C(CC(=O)Nc1cc(C)ccc1C)Nc1ccccc1OC (configuration not stated)

Structure (SMILES): CC(=O)N1c2ccc(S(=O)(=O)N3CCC(C(=O)Nc4cccc(F)c4)CC3)cc2CC1C (configuration not stated)
AC50 [5]: 48.7 µM (active) | AC50 [6]: 4.54 µM (active) | AC50 [7]: 12 µM (active)

IC50 [1]: > 66 µM (inactive) | IC50 [2]: > 66 µM (inactive)
Structure (SMILES): Cc1cccc(NC(=O)C(NS(=O)(=O)c2ccc3c(c2)CCC(=O)N3)c2ccccc2)n1 (configuration not stated)

Structure (SMILES): CC(=O)Nc1sc(-c2ccccc2)nc1-c1ccccc1
EC50 (cells [11]): > 350 µM (not active) | EC50 (cells [12]): > 350 µM (not active)

IC50 [1]: > 66 µM (inactive) | IC50 [2]: > 66 µM (inactive)
Structure (SMILES): Cc1cc(C(=O)NC(=S)Nc2cccc(NC(=O)C(C)C)c2)ccc1[N+](=O)[O-]

IC50 [3]: > 47.1 µM (inactive) | EC50 [4]: > 53 µM (inactive)
Structure (SMILES): Cc1nn(-c2ccccc2)c(NC(=O)c2cccs2)c(-c2ccccc2Cl)c1=O

IC50 (Estrogen receptor): 9.75 µM (active)
Structure (SMILES): Cc1nn(-c2ccccc2)c2sc(C(=O)OCN3C(=O)c4ccccc4C3=O)cc12

IC50 (Estrogen receptor): > 50 µM (not active)
Structure (SMILES): CC1CCCN(C(=O)COC(=O)c2n[nH]c3ccccc23)C1 (configuration not stated)

IC50 (Protein skinhead-1): > 100 µM (inactive) | AC50 (Cytochrome P450 2D6): 10 µM (inconclusive)
Structure (SMILES): Cc1sc(NC(=O)c2ccco2)c(C(c2cccnc2)N2CCCC2)c1C (configuration not stated)

Structure (SMILES): O=C(c1ccccc1)C(CN1CCCCC1)c1ccccc1 (configuration not stated)
AC50 [5]: 15.7 µM (active) | AC50 [6]: 2.41 µM (active) | AC50 [7]: 5.56 µM (active)

IC50 [3]: > 47.1 µM (inactive) | EC50 [4]: > 53 µM (inactive)
Structure (SMILES): CC1CCN(C(=O)C2CCN(S(=O)(=O)c3cccs3)CC2)CC1

IC50 [3]: > 47.1 µM (inactive) | EC50 [4]: > 53 µM (inactive)
Structure (SMILES): CCCCCCCCNS(=O)(=O)CCNCc1ccc(OC)cc1

IC50 (Protein skinhead-1): > 100 µM (inactive)
Structure (SMILES): CN(C)C(=O)CN1C(=O)NC2(CCc3ccccc32)C1=O (configuration not stated)

IC50 [3]: > 47.1 µM (inactive) | EC50 [4]: > 53 µM (inactive)
Structure (SMILES): CCCCCNC1=CC(=O)CC(c2ccccc2)C1 (configuration not stated)

IC50 [1]: > 66 µM (inactive) | IC50 [2]: > 66 µM (inactive)
Structure (SMILES): COc1ccc(NC(=S)N/N=C/c2ccc(F)cc2)cc1OC

Structure (SMILES): O=C(CCSc1nc2ccccc2s1)N/N=C/c1c(O)ccc2ccccc12
EC50 [13]: 21.2 µM (active) | EC50 (cells [11]): 31.3 µM (active) | EC50 (cells [12]): 8.97 µM (active) | EC50 [14]: 14.6 µM (active) | AC50 (INS1): 1.95 µM (active) | AC50 [15]: 4.52 µM (active)

Structure (SMILES): Cc1ccc(/C=N/NC(=O)CN2CCN(Cc3ccccc3Cl)CC2)o1
EC50 (cells [11]): > 350 µM (not active) | EC50 (cells [12]): > 350 µM (not active)

IC50 (Estrogen receptor): 33.5 µM (not active)
Structure (SMILES): N#Cc1c(-c2ccccc2)cc(-c2ccco2)c(C#N)c1N
